Experimental data published in patent US10047051B2, “Substituted pyridines and method of use” (AbbVie S.á{acute over (.)}r.l., priority 2015, dated 2018).

How the values were obtained:
CFTR ΔF508 mutant = target: T1, CFTR ΔF508 mutant (Homo sapiens, UniProt P13569, DEL508-508); assay: YFP-halide influx assay for the CFTR-ΔF508 mutation (CFBE41o- cells); format: cell-based; details: forskolin 10.67 μM; for EC50: from (1−F/F0) vs concentration plot
T1 construct: expressed in transfected cells; host or cells: CFBE41o- cells, adenoviral transduction
T1 sequence (P13569 with tags, fused parts or gaps DEL508-508): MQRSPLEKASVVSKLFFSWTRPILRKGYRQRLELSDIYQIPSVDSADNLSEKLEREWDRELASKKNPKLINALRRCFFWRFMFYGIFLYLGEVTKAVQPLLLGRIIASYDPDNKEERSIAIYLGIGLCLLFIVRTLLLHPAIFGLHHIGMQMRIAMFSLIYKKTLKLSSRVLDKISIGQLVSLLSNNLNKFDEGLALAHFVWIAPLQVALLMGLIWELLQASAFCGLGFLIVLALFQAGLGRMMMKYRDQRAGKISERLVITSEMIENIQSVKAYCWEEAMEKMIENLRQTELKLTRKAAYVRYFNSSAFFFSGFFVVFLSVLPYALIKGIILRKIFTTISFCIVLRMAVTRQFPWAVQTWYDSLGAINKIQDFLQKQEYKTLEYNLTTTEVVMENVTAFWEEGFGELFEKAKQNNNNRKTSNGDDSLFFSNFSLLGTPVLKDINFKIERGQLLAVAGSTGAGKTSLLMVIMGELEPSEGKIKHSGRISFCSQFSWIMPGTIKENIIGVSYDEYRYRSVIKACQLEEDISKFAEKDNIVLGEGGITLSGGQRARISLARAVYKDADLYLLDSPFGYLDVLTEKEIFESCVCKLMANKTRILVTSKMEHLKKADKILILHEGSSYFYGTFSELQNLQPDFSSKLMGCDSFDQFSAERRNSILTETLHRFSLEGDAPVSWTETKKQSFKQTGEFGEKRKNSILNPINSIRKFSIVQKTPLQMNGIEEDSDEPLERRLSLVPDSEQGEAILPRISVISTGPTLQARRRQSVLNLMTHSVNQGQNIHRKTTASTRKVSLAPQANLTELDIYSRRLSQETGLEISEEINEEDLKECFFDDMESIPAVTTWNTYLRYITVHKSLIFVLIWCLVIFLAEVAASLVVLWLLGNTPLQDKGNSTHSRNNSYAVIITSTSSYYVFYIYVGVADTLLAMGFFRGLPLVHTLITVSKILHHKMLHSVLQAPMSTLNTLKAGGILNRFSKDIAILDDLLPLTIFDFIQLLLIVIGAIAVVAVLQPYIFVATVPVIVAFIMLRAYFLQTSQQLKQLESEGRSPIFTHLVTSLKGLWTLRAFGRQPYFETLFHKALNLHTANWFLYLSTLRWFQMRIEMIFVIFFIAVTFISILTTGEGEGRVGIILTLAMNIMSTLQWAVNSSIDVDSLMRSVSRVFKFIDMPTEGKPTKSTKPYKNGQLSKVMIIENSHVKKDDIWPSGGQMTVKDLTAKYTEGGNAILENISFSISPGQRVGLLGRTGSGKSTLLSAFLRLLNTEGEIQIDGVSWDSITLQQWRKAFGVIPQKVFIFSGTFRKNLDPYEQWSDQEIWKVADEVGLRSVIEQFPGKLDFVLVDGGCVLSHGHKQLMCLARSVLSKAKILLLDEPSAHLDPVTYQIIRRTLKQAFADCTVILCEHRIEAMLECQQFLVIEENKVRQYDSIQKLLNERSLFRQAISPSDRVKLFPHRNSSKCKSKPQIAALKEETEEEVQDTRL
Outline: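 CFBE41o- cells transduced with adenovirus expressing CFTR ΔF508 and halide-sensitive YFP H148Q/I152L/F47L, then held 24 h at 27° C or with a CFTR modulator 24 h at 37° C. Iodide-induced quench recorded 2 min; EC50 from (1−F/F0) at 36 s versus concentration.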

CFTR G551D mutant = target: T2, CFTR G551D mutant (Homo sapiens, UniProt P13569, G551D); assay: YFP-halide influx assay for the CFTR-G551D mutation (HEK293 cells); format: cell-based; details: forskolin 10.67 μM
T2 construct: expressed in transfected cells; host or cells: HEK293 cells, reverse transfection with plasmids
T2 sequence (P13569 whole entry G551D): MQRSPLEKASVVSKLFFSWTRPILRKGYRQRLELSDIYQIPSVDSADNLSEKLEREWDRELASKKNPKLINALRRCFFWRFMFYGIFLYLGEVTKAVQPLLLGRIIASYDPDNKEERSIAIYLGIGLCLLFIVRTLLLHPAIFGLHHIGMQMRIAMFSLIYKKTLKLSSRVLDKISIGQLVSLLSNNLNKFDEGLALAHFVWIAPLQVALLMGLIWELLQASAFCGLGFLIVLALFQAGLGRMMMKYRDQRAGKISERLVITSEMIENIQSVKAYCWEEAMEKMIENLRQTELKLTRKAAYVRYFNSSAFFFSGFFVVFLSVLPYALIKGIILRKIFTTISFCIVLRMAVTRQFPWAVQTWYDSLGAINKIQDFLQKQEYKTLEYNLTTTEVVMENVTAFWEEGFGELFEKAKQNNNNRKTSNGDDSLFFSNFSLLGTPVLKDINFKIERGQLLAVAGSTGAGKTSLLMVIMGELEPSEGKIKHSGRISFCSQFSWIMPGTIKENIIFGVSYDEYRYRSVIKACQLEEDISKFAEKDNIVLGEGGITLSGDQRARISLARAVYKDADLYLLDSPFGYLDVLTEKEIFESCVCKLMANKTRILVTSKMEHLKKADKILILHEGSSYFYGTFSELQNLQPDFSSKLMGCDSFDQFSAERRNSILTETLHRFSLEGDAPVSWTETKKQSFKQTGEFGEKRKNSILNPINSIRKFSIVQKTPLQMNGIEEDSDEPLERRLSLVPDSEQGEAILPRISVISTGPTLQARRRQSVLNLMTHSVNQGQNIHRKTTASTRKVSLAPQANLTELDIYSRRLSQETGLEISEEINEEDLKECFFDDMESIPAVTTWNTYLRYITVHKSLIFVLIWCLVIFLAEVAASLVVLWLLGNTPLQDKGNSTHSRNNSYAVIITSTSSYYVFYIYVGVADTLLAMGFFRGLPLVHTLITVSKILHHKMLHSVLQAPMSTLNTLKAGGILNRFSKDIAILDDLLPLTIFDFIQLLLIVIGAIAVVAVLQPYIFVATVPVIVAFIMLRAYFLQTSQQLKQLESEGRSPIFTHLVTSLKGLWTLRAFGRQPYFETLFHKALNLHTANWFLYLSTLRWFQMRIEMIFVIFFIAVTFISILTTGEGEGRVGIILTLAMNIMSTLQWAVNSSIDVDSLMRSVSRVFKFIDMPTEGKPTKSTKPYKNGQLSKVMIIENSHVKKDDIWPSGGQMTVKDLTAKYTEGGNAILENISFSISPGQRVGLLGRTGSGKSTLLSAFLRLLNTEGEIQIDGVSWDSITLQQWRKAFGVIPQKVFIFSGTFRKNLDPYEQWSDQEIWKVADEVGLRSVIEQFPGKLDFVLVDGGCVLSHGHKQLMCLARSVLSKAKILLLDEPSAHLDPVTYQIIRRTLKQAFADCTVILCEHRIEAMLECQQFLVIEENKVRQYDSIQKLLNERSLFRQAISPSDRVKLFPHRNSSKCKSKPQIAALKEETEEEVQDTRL
Outline: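 HEK293 cells reverse-transfected with CFTR G551D and halide-sensitive YFP (H148Q/I152L/F47L), expressed 24 h at 37 °C. YFP fluorescence quenching recorded for 7 s after I⁻ injection. Response = 1−F/F0; EC50 derived from 1−F/F0 vs compound concentration.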

Compound | % Activation (CFTR ΔF508 mutant) [%] | EC50 (CFTR ΔF508 mutant) [nM] | % Activation (CFTR G551D mutant) [%] | EC50 (CFTR G551D mutant) [nM]
NC(=O)c1ncc(S(=O)(=O)c2ccc(OC(F)(F)F)cc2)cc1N [Compound 297, 3-amino-5-{[4-(trifluoromethoxy)phenyl]sulfonyl}pyridine-2-carboxamide] | 109 | 53 | 85 | 518
COCC(=O)NNC(=O)c1ncc(S(=O)(=O)c2ccc(OC(F)(F)F)cc2)cc1N [Compound 286, 3-amino-N′-(methoxyacetyl)-5-{[4-(trifluoromethoxy)phenyl]sulfonyl}pyridine-2-carbohydrazide] | 79.7 | 88.1 | 26.8 | 
Nc1cc(S(=O)(=O)c2ccc(OC(F)(F)F)cc2)cnc1C(=O)NC1COC1 [Compound 151, 3-amino-N-(oxetan-3-yl)-5-{[4-(trifluoromethoxy)phenyl]sulfonyl}pyridine-2-carboxamide] | 16.9 | > 1000 | 3.0 | > 5000
Nc1cc(S(=O)(=O)c2ccc(OC(F)(F)F)cc2)cnc1C(=O)NCCC1CC1 [Compound 152, 3-amino-N-(2-cyclopropylethyl)-5-{[4-(trifluoromethoxy)phenyl]sulfonyl}pyridine-2-carboxamide] | 93.3 | 119 | 60.2 | 1130
Nc1cc(S(=O)(=O)c2ccc(OC(F)(F)F)cc2)cnc1C(=O)NCC1(O)CCOC1 (stereo not shown) [Compound 28, 3-amino-N-[(3-hydroxytetrahydrofuran-3-yl)methyl]-5-{[4-(trifluoromethoxy)phenyl]sulfonyl}pyridine-2-carboxamide] | 97.2 | 50.4 | 51.9 | 2330
CC(C)C1(O)CN(C(=O)c2ncc(S(=O)(=O)c3ccc(OC(F)(F)F)cc3F)cc2N)C1 [Compound 175, (3-amino-5-{[2-fluoro-4-(trifluoromethoxy)phenyl]sulfonyl}pyridin-2-yl)[3-hydroxy-3-(propan-2-yl)azetidin-1-yl]methanone] | 103.0 | 6.3 | 44.0 | > 3330
Nc1cc(S(=O)(=O)c2ccc(OC(F)(F)F)cc2)cnc1C(=O)NC[C@@H](O)COCC1CC1 [Compound 251, 3-amino-N-[(2R)-3-(cyclopropylmethoxy)-2-hydroxypropyl]-5-{[4-(trifluoromethoxy)phenyl]sulfonyl}pyridine-2-carboxamide] | 110.0 | 16.3 | 93.3 | 919
C[C@H](O)CNC(=O)c1nc(N(C)C)c(S(=O)(=O)c2ccc(OC(F)(F)F)cc2)cc1N [Compound 283, 3-amino-6-(dimethylamino)-N-[(2S)-2-hydroxypropyl]-5-{[4-(trifluoromethoxy)phenyl]sulfonyl}pyridine-2-carboxamide] | 93.3 | 5.1 | 96.5 | 2620
C[C@H](O)CNC(=O)c1nc(C2CC2)c(S(=O)(=O)c2ccc(F)cc2)cc1N [Compound 274, 3-amino-6-cyclopropyl-5-[(4-fluorophenyl)sulfonyl]-N-[(2S)-2-hydroxypropyl]pyridine-2-carboxamide] | 111.0 | 6.9 | 69.5 | > 3330
Nc1cc(S(=O)(=O)c2ccc(OC(F)(F)F)cc2)cnc1C(=O)N1CC[C@@H](F)C1 [Compound 204, (3-amino-5-{[4-(trifluoromethoxy)phenyl]sulfonyl}pyridin-2-yl)[(3R)-3-fluoropyrrolidin-1-yl]methanone] | 92.5 | 177 | 73.9 | > 3330
CC1CN(C(=O)c2ncc(S(=O)(=O)c3ccc(OC(F)(F)F)cc3)cc2N)C1 [Compound 126, (3-amino-5-{[4-(trifluoromethoxy)phenyl]sulfonyl}pyridin-2-yl)(3-methylazetidin-1-yl)methanone] | 92.9 | 64.9 | 62.2 | 1470
CCC(CO)NC(=O)c1ncc(S(=O)(=O)c2ccc(OC(F)(F)F)cc2)cc1N (stereo not shown) [Compound 12, 3-amino-N-(1-hydroxybutan-2-yl)-5-{[4-(trifluoromethoxy)phenyl]sulfonyl}pyridine-2-carboxamide] | 114.5 | 36.1 | 43.8 | 692
C[C@H](O)CNC(=O)c1ncc(S(=O)(=O)N2CCC[C@@H]2C)cc1N [Compound 266, 3-amino-N-[(2S)-2-hydroxypropyl]-5-{[(2S)-2-methylpyrrolidin-1-yl]sulfonyl}pyridine-2-carboxamide] | 105.0 | 180 | 21.9 | > 10000

The remaining lines, values ahead:

% Activation (CFTR ΔF508 mutant) [%] | EC50 (CFTR ΔF508 mutant) [nM] | % Activation (CFTR G551D mutant) [%] | EC50 (CFTR G551D mutant) [nM] | Compound
101.9 | 10.4 | 41.1 | 297 | CC(C)NC(=O)CNC(=O)c1ncc(S(=O)(=O)c2ccc(C(F)(F)F)cc2F)cc1N [Compound 113, 3-amino-5-{[2-fluoro-4-(trifluoromethyl)phenyl]sulfonyl}-N-[2-oxo-2-(propan-2-ylamino)ethyl]pyridine-2-carboxamide]
100.8 | 18.9 | 26.1 | > 10000 | CC(C)NC(=O)CNC(=O)c1ncc(S(=O)(=O)c2ccc(C(F)(F)F)cc2)cc1N [Compound 104, 3-amino-N-[2-oxo-2-(propan-2-ylamino)ethyl]-5-{[4-(trifluoromethyl)phenyl]sulfonyl}pyridine-2-carboxamide]
58.5 | > 667 | 14.4 |  | Nc1cc(S(=O)(=O)c2ccc(C(F)(F)F)cc2)cnc1C(=O)N[C@@H]1COCC[C@@H]1O [Compound 235, 3-amino-N-[(3R,4S)-4-hydroxytetrahydro-2H-pyran-3-yl]-5-{[4-(trifluoromethyl)phenyl]sulfonyl}pyridine-2-carboxamide]
94.5 | 17.9 | 49.6 | 684 | COc1ccc(CN(C)S(=O)(=O)c2cnc(C(=O)NCC(O)C(F)(F)F)c(N)c2)cc1 (stereo not shown) [Compound 138, 3-amino-5-[(4-methoxybenzyl)(methyl)sulfamoyl]-N-(3,3,3-trifluoro-2-hydroxypropyl)pyridine-2-carboxamide]
107.0 | 1.3 | 72.5 | 160 | Nc1cc(S(=O)(=O)c2ccc(C(F)(F)F)cc2)cnc1C(=O)NC[C@H](O)C(F)(F)F [Compound 64, 3-amino-N-[(2S)-3,3,3-trifluoro-2-hydroxypropyl]-5-{[4-(trifluoromethyl)phenyl]sulfonyl}pyridine-2-carboxamide]
97.5 | 9.6 | 104.0 | 967 | CC1(F)CN(C(=O)c2ncc(S(=O)(=O)c3ccc(C(F)(F)F)cc3)cc2N)C1 [Compound 294, (3-amino-5-{[4-(trifluoromethyl)phenyl]sulfonyl}pyridin-2-yl)(3-fluoro-3-methylazetidin-1-yl)methanone]
93.8 | 36.2 | 39.3 | > 10000 | Nc1cc(S(=O)(=O)c2ccc(C(F)(F)F)cc2)cnc1C(=O)NCC(F)(F)F [Compound 209, 3-amino-N-(2,2,2-trifluoroethyl)-5-{[4-(trifluoromethyl)phenyl]sulfonyl}pyridine-2-carboxamide]
105.9 | 3.7 | 84.2 | 253 | CC(C)OCC(O)CNC(=O)c1ncc(S(=O)(=O)c2ccc(C(F)(F)F)cc2F)cc1N (stereo not shown) [Compound 133, 3-amino-5-{[2-fluoro-4-(trifluoromethyl)phenyl]sulfonyl}-N-[2-hydroxy-3-(propan-2-yloxy)propyl]pyridine-2-carboxamide]
96.0 | 12.4 | 82.0 | 762 | CCOCC(O)CNC(=O)c1ncc(S(=O)(=O)c2ccc(OC(F)(F)F)cc2)cc1N (stereo not shown) [Compound 88, 3-amino-N-(3-ethoxy-2-hydroxypropyl)-5-{[4-(trifluoromethoxy)phenyl]sulfonyl}pyridine-2-carboxamide]
113.7 | 2.9 | 53.4 | > 3330 | CN(Cc1ccc(F)c(F)c1)S(=O)(=O)c1cnc(C(=O)NCC(O)C(F)(F)F)c(N)c1 (stereo not shown) [Compound 136, 3-amino-5-[(3,4-difluorobenzyl)(methyl)sulfamoyl]-N-(3,3,3-trifluoro-2-hydroxypropyl)pyridine-2-carboxamide]
98.4 | 24.7 | 24.0 |  | CN(Cc1ccc(C(F)(F)F)cc1)S(=O)(=O)c1cnc(C(=O)NCC(O)C(F)(F)F)c(N)c1 (stereo not shown) [Compound 211, 3-amino-5-{methyl[4-(trifluoromethyl)benzyl]sulfamoyl}-N-(3,3,3-trifluoro-2-hydroxypropyl)pyridine-2-carboxamide]
113.0 | 1.7 | 57.2 | 662 | Nc1cc(S(=O)(=O)c2ccc(OC(F)(F)F)cc2)cnc1C(=O)NCC(O)C(F)F (stereo not shown) [Compound 279, 3-amino-N-(3,3-difluoro-2-hydroxypropyl)-5-{[4-(trifluoromethoxy)phenyl]sulfonyl}pyridine-2-carboxamide]
